Measured values reported in a melting point compilation (Tetko et al.).

| Structure (SMILES) | melting point |
| --- | --- |
| CCn1c(S)nnc1-c1ccc(C(C)(C)C)cc1 | 130 to 132 °C |
| Clc1cccc(-c2ccccn2)n1 | 62 to 64 °C |
| Nc1ccc(-c2nc(C3CC3)no2)cc1Cl | 97 to 99 °C |
| NC(=O)c1ccc(C(F)(F)F)nc1 | 185 to 187 °C |
| Cn1cc(-c2cccc(N)n2)cn1 | 132 to 134 °C |
| Nc1cccc(C(=O)N2CCCCC2CCO)c1 (centres undefined) | 129 to 131 °C |
| Cc1cc2[nH]c(=O)c3ccccc3n2n1 | 278 to 282 °C |
| c1cncc(-c2ncn[nH]2)c1 | 173 to 175 °C |
| COC(=O)NCCC(=O)O | 75 to 77 °C |
| COCCNS(=O)(=O)c1cc(C(=O)O)ccc1OC | 183 to 185 °C |
| Nc1ccc2c(c1)S(=O)(=O)CC2 | 197 to 199 °C |
| CN1C(=O)CCc2cc(C(=O)O)ccc21 | 209 to 211 °C |
| CN(C(=O)CSc1ccccc1C(=O)O)C1CCCCC1 | 102 to 104 °C |
| NC(=NO)c1cccc(OCc2cccnc2)c1 | 127 to 129 °C |
| CCCCC1(c2ccc(F)cc2)NC(=O)NC1=O (centres undefined) | 113 to 115 °C |
| CC(=O)Nc1ccc(O)c(S(=O)(=O)Cl)c1 | 164 to 166 °C |
| Clc1cnc(Cl)c(-c2ccccc2)n1 | 52 to 54 °C |
| Cn1cc(S(=O)(=O)Cl)c([N+](=O)[O-])n1 | 70 to 72 °C |
| Nc1nc(-c2ccc3c(c2)COC3)cs1 | 204 to 206 °C |
| NC(=O)c1cc(Oc2cccc(O)c2)ccn1 | 124 to 126 °C |
| O=C(O)c1oc2ccccc2c1CO | 153 to 155 °C |
| CC(SCC(=O)Nc1cccc(Br)c1)C(=O)O (centres undefined) | 106 to 108 °C |
| COC(=O)c1cc(Cl)c(O)c(Cl)c1 | 117 to 121 °C |
| OCCNc1ccc(Cl)nn1 | 133 to 135 °C |

| Structure (SMILES) | melting point |
| --- | --- |
| Cc1c(N)cc(C#N)cc1F | 135 to 137 °C |
| CS(=O)(=O)c1ccc(C(N)=NO)cc1 | 196 to 198 °C |
| COc1ccc(C(C)=O)cc1-c1cccc(C(F)(F)F)c1 | 76 to 78 °C |
| CCN(CC)S(=O)(=O)c1ccc(N)c(N)c1 | 124 to 126 °C |
| O=C(O)CC1CCC(c2ccccc2)CC1 (centres undefined) | 83 to 85 °C |
| Cc1ccc(N)cc1S(=O)(=O)N1CCCCC1 | 105 to 107 °C |
| O=[N+]([O-])c1ccc(N2CCNCC2)nc1 | 128 to 130 °C |
| COc1ccc(C)cc1C1(C)NC(=O)N(CC(=O)O)C1=O (centres undefined) | 188 to 190 °C |
| COc1cc(C#N)ccc1CBr | 89 to 91 °C |
| ClCc1ncc(-c2ccc(Cl)cc2)o1 | 53 to 57 °C |
| Nc1ccc(N2CCOCC2)cn1 | 143 to 145 °C |
| O=C1CCN(c2ccc([N+](=O)[O-])cc2)CC1 | 162 to 164 °C |
| Cc1ccc(-c2noc(Cl)n2)cc1 | 40 to 42 °C |
| CCC(Cc1ccccc1Br)C(=O)O (centres undefined) | 67 to 69 °C |
| Cc1cc(C)cc(-c2nnc(S)o2)c1 | 240 to 242 °C |
| N#CC1(NC(=O)CCl)CCCC1 | 74 to 76 °C |
| O=c1ccc2c(Cl)ccc(Cl)c2[nH]1 | 194 to 196 °C |
| CNC(=O)c1ccc(Cl)nn1 | 170 to 172 °C |
| O=C(O)CC(O)c1ccc(Cl)cc1 (centres undefined) | 197 to 199 °C |
| COC(=O)Cc1c(C(=O)OC)sc2nc(CCl)[nH]c(=O)c12 | 208 to 210 °C |
| CCN(Cc1ccccc1)S(=O)(=O)c1cc(C(=O)O)ccc1OC | 102 to 105 °C |
| Cc1cc(C(=O)CCl)c(C)n1-c1ccc(S(N)(=O)=O)cc1 | 241 to 243 °C |
| O=C(O)c1cc(NS(=O)(=O)c2cc([N+](=O)[O-])ccc2Cl)ccc1O | 43 to 45 °C |
| COc1ccc2ccc(O)cc2c1 | 116 to 119 °C |

| Structure (SMILES) | melting point |
| --- | --- |
| Cc1cc(S(=O)(=O)Cl)c(C)cc1Br | 54 to 56 °C |
| CCOC(=O)c1c(-c2ccc(OC)c(OC)c2)csc1N | 223 to 225 °C |
| Cc1ccc(N)cc1NC(=O)c1ccncc1 | 201 to 203 °C |
| CCOc1ccc(Br)cc1S(=O)(=O)NC | 107 to 109 °C |
| O=c1[nH]c(CNCc2ccccc2)nc2ccccc12 | 139 to 141 °C |
| CC(C)(C)c1ccc(C(=O)CC#N)cc1 | 78 to 80 °C |
| N#Cc1cnc2ccc(OC(F)F)cc2c1Cl | 103 to 105 °C |
| CC1(C)C(=O)NCCN1Cc1ccccc1 | 212 to 214 °C |
| O=C1CCc2cc(C(=O)c3ccccc3)ccc2N1 | 207 to 209 °C |
| ClCc1noc(-c2ccoc2)n1 | 77 to 79 °C |
| CN(C)CCOc1ccc(C(N)=S)cc1 | 142 to 144 °C |
| O=C(O)c1c[nH]nc1-c1ccccc1Cl | 255 to 257 °C |
| FC(F)(F)c1ccc(OCc2ccc(Cl)nc2)cc1 | 106 to 108 °C |
| O=C(O)C1CCN(C(=O)c2ccoc2)CC1 | 103 to 105 °C |
| Cc1cc(C(=O)NC2CCCCC2)ccc1N | 178 to 180 °C |
| Clc1nc(CN2CCCCC2)nc2scc(-c3ccccc3)c12 | 79 to 81 °C |
| O=C1CCC(c2ccc(F)cc2)=NN1 | 193 to 195 °C |
| COC(=O)C1CCN(c2ccnc(C#N)c2)CC1 | 104 to 106 °C |
| O=C(O)c1ccc(S(=O)(=O)Cl)s1 | 119 to 121 °C |
| Nc1nc2c(Cl)cccc2[nH]1 | 143 to 145 °C |
| COc1cccc(/C=C/C(=O)O)c1OC(F)F | 208 to 210 °C |
| O=C(O)Cc1csc(-c2cccc(F)c2)n1 | 124 to 126 °C |
| CON(C)S(=O)(=O)c1ccc(N)cc1 | 148 to 150 °C |
| O=S1(=O)CCN1 | 51 to 53 °C |

| Structure (SMILES) | melting point |
| --- | --- |
| Nc1cc2c(cc1N)OCCO2 | 124 to 126 °C |
| Fc1cc(F)cc(-c2n[nH]c(S)n2)c1 | 279 to 281 °C |
| CC(C)(C)OC(=O)Nc1ccc(CC(N)=S)cc1 | 160 to 162 °C |
| O=C(O)c1nn(-c2ccccc2F)cc1O | 202 to 204 °C |
| O=C(CCl)Nc1ccc(F)c(F)c1 | 106 to 108 °C |
| CNS(=O)(=O)Cc1cc(C)on1 | 69 to 71 °C |
| Cn1nc(Br)c(=O)n(C)c1=O | 95 to 97 °C |
| COc1cccc(CNC(=O)n2ccnc2)c1 | 98 to 100 °C |
| CC(NC(=O)CCl)c1ccccc1 (centres undefined) | 75 to 77 °C |
| NC(=S)Cc1cccc(Cl)c1 | 105 to 107 °C |
| O=C(O)C1Cc2cc(F)ccc2O1 (centres undefined) | 129 to 131 °C |
| Cc1cc([N+](=O)[O-])cc(C)c1N | 161 to 163 °C |
| O=C(O)C(F)(F)c1ccc(Cl)c(Cl)c1 | 109 to 111 °C |
| COc1cc(CN2CCNCC2)cc(OC)c1OC | 102 to 104 °C |
| Nc1ccc2[nH]c(CCN3CCOCC3)nc2c1 | 201 to 203 °C |
| CC(=O)Nc1ccccc1C=O | 67 to 69 °C |
| CC(C)Oc1ccc2ccccc2c1C=O | 65 to 67 °C |
| O=C1CCc2cc(O)ccc2N1 | 239 to 241 °C |
| Cc1cc(N)c2cccnc2c1C | 124 to 126 °C |
| c1cc(-c2nnco2)ccn1 | 119 to 121 °C |
| Cc1nn2cccnc2c1C(=O)O | 176 to 178 °C |
| Sc1nnc(-c2ccc[nH]2)o1 | 205 to 207 °C |
| O=C1C=C(c2ccccc2)CCC1 | 63 to 65 °C |
| O=C(CCl)NCc1ccccc1[N+](=O)[O-] | 93 to 95 °C |

| Structure (SMILES) | melting point |
| --- | --- |
| OCc1ccc(N2CCCC2)cc1 | 61 to 63 °C |
| Cc1ccccc1Nc1nc2sc(C(=O)O)cc2s1 | 232 to 234 °C |
| O=C(O)c1ccc(=O)n(CCOc2ccccc2)n1 | 138 to 140 °C |
| O=C(O)c1nccn2c(Br)cnc12 | 158 to 160 °C |
| CS(=O)(=O)Nc1cccc(Br)c1 | 113 to 115 °C |
| CNc1cccc2ncccc12 | 125 to 127 °C |
| CC(CS(C)(=O)=O)C(=O)O (centres undefined) | 125 to 127 °C |
| COc1ccc(C(=O)CCl)c(OC)c1 | 48 to 50 °C |
| CN(C)C(C(=O)O)c1cc(Cl)cc(Cl)c1 (centres undefined) | 170 to 172 °C |
| Cc1onc2c(=O)[nH]nc(-c3ccccc3)c12 | 235 to 237 °C |
| CC(C)(C)OC(=O)NC(C)(C)C(N)=S | 169 to 171 °C |
| NC(=O)Nc1ccc2c(c1)OCCO2 | 159 to 161 °C |
| O=C(O)C1CCN(c2ccc(Cl)nn2)CC1 | 186 to 188 °C |
| Cc1ccc(-c2cc(CBr)on2)cc1 | 86 to 88 °C |
| Nc1ccc(-n2cncn2)nc1 | 188 to 190 °C |
| COc1cc(N)ccc1S(=O)(=O)Nc1ccc(F)c(Cl)c1 | 165 to 167 °C |
| O=Cc1cnc(-c2cnccn2)s1 | 159 to 161 °C |
| O=C(O)C1CC(=O)N(c2ccc(Cl)cc2)C1 (centres undefined) | 149 to 151 °C |
| O=C(O)c1cc(Cl)nc(Oc2ccc(Br)cc2)c1 | 213 to 215 °C |
| CN1CCN(S(=O)(=O)c2ccc(NN)nc2)CC1 | 168 to 170 °C |
| O=C(O)c1cccnc1OCCO | 196 to 198 °C |
| NS(=O)(=O)c1cc(Cl)c(Br)s1 | 147 to 149 °C |
| COc1ccsc1C(N)=O | 147 to 149 °C |
| CS(=O)(=O)Nc1cccc(CC(=O)O)c1 | 156 to 158 °C |

| Structure (SMILES) | melting point |
| --- | --- |
| CC(Cl)C(=O)N(CCC#N)c1ccccc1 (centres undefined) | 74 to 76 °C |
| CN1C(=O)CC(C(=O)O)C1c1cccc(Cl)c1 (centres undefined) | 155 to 157 °C |
| CC(=O)c1cn(-c2ccccc2)nn1 | 102 to 104 °C |
| COc1ccccc1NC(=O)c1c(C)n[nH]c1N | 178 to 182 °C |
| COc1ccc(Cl)cc1NC(=O)CCl | 101 to 103 °C |
| NC(=O)c1coc2ccccc12 | 144 to 146 °C |
| O=C(O)c1ccc(Cl)c(S(=O)(=O)Cl)c1 | 142 to 145 °C |
| CC(=O)c1cncnc1 | 63 to 65 °C |
| Cn1c(C=O)nc2c1c(=O)[nH]c(=O)n2C | 284 to 286 °C |
| Cc1ncc(C(=O)O)c(=O)[nH]1 | 310 to 312 °C |
| NNc1ccc2ccccc2n1 | 147 to 151 °C |
| CN(C)S(=O)(=O)c1cc(C(=O)O)ccc1Cl | 239 to 241 °C |
| Nc1ccnn1CC1CCCCC1 | 59 to 61 °C |
| Cc1cc(-c2nc3cc(F)ccc3n2C)ccc1N | 174 to 176 °C |
| CC(=O)NCc1ccc(C(=O)C(C)Cl)o1 (centres undefined) | 64 to 66 °C |
| CN(C)C=C1C(=O)CCCC1=O | 111 to 113 °C |
| Cc1ccc(S(=O)(=O)Cl)c(F)c1 | 39 to 41 °C |
| Cn1c(S)nnc1CC1CCS(=O)(=O)C1 (centres undefined) | 237 to 239 °C |
| Nc1ccc(Br)cc1-c1nc(C2CC2)no1 | 123 to 125 °C |
| Cc1cccc(OCCCC(=O)O)c1 | 55 to 57 °C |
| COC(=O)c1c[nH][nH]c1=O | 209 to 211 °C |
| CCCCc1ccc2nc(N)sc2c1 | 95 to 101 °C |
| Cc1ccc(C(=O)O)cc1NC(=O)c1ccccc1F | 268 to 270 °C |
| Cc1nsc(N)c1C(=O)O | 158 to 160 °C |
